Data from patent US9546176B2, “Small molecule bicyclic and tricyclic CFTR correctors” (DISCOVERYBIOMED, INC., priority 2012, dated 2017).
Read-outs that look alike come from different tables or passages of the source.

Target: T1, delF508-CFTR (Homo sapiens, UniProt P13569, DEL508-508)
T1 construct: endogenous in cells; host or cells: CFBE41o- human CF bronchial epithelial cells (delF508 homozygous)
Assay: SPQ halide-sensitive fluorescence dye assay for rescue of halide efflux (8-point concentration-response)
Format: cell-based
Conditions: for EC50: read-out: SPQ EC50; for potency and efficacy compared with VX-809 in SPQ assay: versus VX-809
Description: The method of profiling can include detecting the rescue of halide efflux from a cell. The step of detecting a rescue of halide efflux from the cell can be monitored using the halide quenched dye 6-methoxy-N-(3-sulfopropyl)-quinolinium (SPQ, Molecular Probes Inc., Eugene, Oreg.). In this method, cells are treated with a compound as described herein for a period of time (e.g., 48 hours). The rescue or correction of halide efflux is then detected using the SPQ assay with the halide dye. […] Optionally, the halide efflux is chloride efflux. The method of screening can further comprise performing the method with multiple concentrations of the compound.
The compounds were initially subjected to the SPQ halide-sensitive fluorescence dye profiling assay for rescue or correction of membrane chloride ion permeability or transport with an 8-point concentration-response curve. The EC50 values for the compounds described herein were determined using SPQ (Table 1). The ΔSPQ value was calculated by determining the difference between the maximum and minimum SPQ values for the compounds.
To perform the SPQ high throughput screening assay, CFBE41o-cells were seeded into 96-well microtiter plates and were loaded with the fluorescent halide-sensitive dye, SPQ, in serum-containing culture medium. Certain wells were loaded with known positive control corrector molecules, including the industry standard Vertex 809 (VX-809; Vertex Pharmaceuticals, Cambridge, Mass.) at 3 μM, which is the maximally effective profiling dose for VX-809. The test compounds were loaded into wells and were tested in triplicate wells at a 10 μM dose and incubated over 48 hours at room temperature. During the 48 hour period, SPQ was absorbed. Plates were washed in a sodium chloride (NaCl) based Ringer and read once over two minutes to set the baseline SPQ fluorescence activity. Then, NaCl was replaced by sodium nitrate (NaNO3) based Ringer. The plates were read twice over four minutes. The primary high throughput screen (HTS) data were analyzed to detect any function of rescued delF508-CFTR under basal conditions. The plate was read up to two times to complete the SPQ HTS assay.

T1 sequence (P13569 with tags, fused parts or gaps DEL508-508): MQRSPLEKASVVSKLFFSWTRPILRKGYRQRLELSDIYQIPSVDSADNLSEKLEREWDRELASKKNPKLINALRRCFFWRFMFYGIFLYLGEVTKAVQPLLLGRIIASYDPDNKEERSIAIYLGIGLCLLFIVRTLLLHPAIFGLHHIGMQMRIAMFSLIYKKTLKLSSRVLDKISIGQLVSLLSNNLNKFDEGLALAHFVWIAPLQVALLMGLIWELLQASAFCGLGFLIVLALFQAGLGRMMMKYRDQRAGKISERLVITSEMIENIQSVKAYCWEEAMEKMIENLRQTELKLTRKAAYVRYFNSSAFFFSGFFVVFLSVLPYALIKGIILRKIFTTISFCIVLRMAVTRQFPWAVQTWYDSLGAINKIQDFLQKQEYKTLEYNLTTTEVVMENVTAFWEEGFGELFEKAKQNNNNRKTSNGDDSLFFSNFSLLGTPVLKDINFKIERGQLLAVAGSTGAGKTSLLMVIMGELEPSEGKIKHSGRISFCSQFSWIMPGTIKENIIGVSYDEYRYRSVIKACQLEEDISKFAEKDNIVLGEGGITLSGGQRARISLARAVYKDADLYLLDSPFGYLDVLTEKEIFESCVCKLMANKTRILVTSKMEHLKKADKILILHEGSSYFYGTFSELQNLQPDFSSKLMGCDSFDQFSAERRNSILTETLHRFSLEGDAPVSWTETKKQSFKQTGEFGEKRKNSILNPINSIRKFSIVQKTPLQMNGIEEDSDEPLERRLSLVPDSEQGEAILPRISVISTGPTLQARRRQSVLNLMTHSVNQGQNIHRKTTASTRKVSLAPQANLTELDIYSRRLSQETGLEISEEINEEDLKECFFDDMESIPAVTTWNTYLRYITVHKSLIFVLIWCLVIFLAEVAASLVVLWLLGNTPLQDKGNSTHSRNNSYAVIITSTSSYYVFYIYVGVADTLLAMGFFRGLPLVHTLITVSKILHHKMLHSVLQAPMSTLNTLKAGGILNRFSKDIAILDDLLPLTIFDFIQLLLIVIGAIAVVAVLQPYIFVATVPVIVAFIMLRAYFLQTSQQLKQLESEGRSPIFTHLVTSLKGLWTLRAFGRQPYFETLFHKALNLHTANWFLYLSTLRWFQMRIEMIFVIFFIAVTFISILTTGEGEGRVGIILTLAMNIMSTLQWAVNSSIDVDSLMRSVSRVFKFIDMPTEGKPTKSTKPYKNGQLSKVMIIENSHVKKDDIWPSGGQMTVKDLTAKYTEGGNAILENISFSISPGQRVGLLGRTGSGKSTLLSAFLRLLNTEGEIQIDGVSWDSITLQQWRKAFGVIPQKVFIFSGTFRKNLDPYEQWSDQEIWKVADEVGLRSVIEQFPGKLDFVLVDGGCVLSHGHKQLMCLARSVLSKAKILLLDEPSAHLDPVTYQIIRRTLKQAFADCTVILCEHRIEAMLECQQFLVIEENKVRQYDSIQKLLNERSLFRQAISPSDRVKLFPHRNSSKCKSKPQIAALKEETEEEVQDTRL

SMILES | ΔSPQ (difference between maximum and minimum SPQ values) (CFBE41o- cells, 48 h) | EC50 (CFBE41o- cells, 48 h) | potency and efficacy compared with VX-809 in SPQ assay | ΔSPQ (Trial 2) | EC50 (Trial 2)
CCn1c(=O)c2c(nc3n(Cc4ccco4)c(C)c(C)n23)n(C)c1=O [Compound I-36] | 3375 RFU | 7.1 µM |  |  | 
CCCn1c(=O)c2c(nc3n(C(C)CC)c(C)cn23)n(C)c1=O (centres unmarked) [Compound I-37] | 8170 RFU | 10.7 µM |  |  | 
C=CCn1c(=O)c2c(nc3n(CC(C)C)c(C)c(C)n23)n(C)c1=O [Compound I-38] | 8563 RFU | 7.8 µM |  |  | 
Cc1cc(C)cc(-n2c(C)cn3c4c(=O)n(CCCO)c(=O)n(C)c4nc23)c1 [Compound I-39] | 11432 RFU | 13 µM |  |  | 
CCOCCn1c(=O)c2c(nc3n2CCN3c2cc(C)ccc2C)n(C)c1=O [Compound I-40] | 12347 RFU | 9.5 µM |  |  | 
Cc1c(C)n2c3c(=O)n(CCCO)c(=O)n(C)c3nc2n1-c1ccccc1 [Compound I-41] | 11080 RFU | 20.3 µM |  |  | 
CCc1ccc(-n2c(C)cn3c4c(=O)n(CCCO)c(=O)n(C)c4nc23)cc1 [Compound I-42] | 14593 RFU | 19.7 µM |  |  | 
C=CCn1c(=O)c2c(nc3n(C(C)c4ccccc4)c(C)c(C)n23)n(C)c1=O (centres unmarked) [Compound I-43] | 9439 RFU | 3.4 µM |  |  | 
Cc1c(C)n2c3c(=O)n(CC(C)C)c(=O)n(C)c3nc2n1Cc1ccco1 [Compound I-44] | 9148 RFU | 10 µM |  |  | 
CCOCCn1c(=O)c2c(nc3n(-c4ccc(OC)cc4)c(C)c(C)n23)n(C)c1=O [Compound I-45] | 5321 RFU | 23.3 µM |  |  | 
CCCCn1c(C)cn2c3c(=O)n(CC(=O)OC)c(=O)n(C)c3nc12 [Compound I-46] | 5027 RFU | 10.6 µM |  |  | 
Cc1c(C)n2c3c(=O)n(CCCO)c(=O)n(C)c3nc2n1Cc1ccco1 [Compound I-47] | 7294 RFU | 10.6 µM |  |  | 
Cc1c(C)n2c3c(=O)n(CCCO)c(=O)n(C)c3nc2n1CCc1ccccc1 [Compound I-48] | 5300 RFU | 3.3 µM |  |  | 
CCC(C)n1c(C)c(C)n2c3c(=O)n(CC(=O)OC)c(=O)n(C)c3nc12 (centres unmarked) [Compound I-49] | 9652 RFU | 9 µM |  |  | 
Cc1c(C)n2c3c(=O)n(C/C=C/c4ccccc4)c(=O)n(C)c3nc2n1CCCO [Compound I-50] | 3639 RFU | > 30 µM |  |  | 
CCCCn1c(=O)c2c(nc3n(CCN4CCOCC4)c(C)c(C)n23)n(C)c1=O [Compound I-51] | 9639 RFU | > 30 µM |  |  | 
C/C=C/Cn1c(=O)c2c(nc3n(Cc4ccco4)c(C)cn23)n(C)c1=O [Compound I-52] | 6282 RFU | > 30 µM |  |  | 
C/C=C/Cn1c(=O)c2c(nc3n2CCN3Cc2ccco2)n(C)c1=O [Compound I-53] | 6050 RFU | 11 µM |  |  | 
CCn1c(=O)c2c(nc3n2CCN3Cc2ccco2)n(C)c1=O [Compound I-54] | 3397 RFU | > 30 µM |  |  | 
CC(C)CCn1c(=O)c2c(nc3n2CCN3Cc2ccco2)n(C)c1=O [Compound I-55] | 4315 RFU | > 30 µM |  |  | 
C/C=C/Cn1c(=O)c2c(nc3n(C(C)CC)c(C)c(C)n23)n(C)c1=O (centres unmarked) [Compound I-56] | 2183 RFU | 0.2 µM | superior potency and efficacy to VX-809 |  | 
CCn1c(=O)c2c(nc3n(-c4ccccc4C)c(C)c(C)n23)n(C)c1=O [Compound I-57] | 4000 RFU | 7.9 µM |  |  | 
CCC(C)n1c(C)c(C)n2c3c(=O)n(CC)c(=O)n(C)c3nc12 (centres unmarked) [Compound I-58] | 3361 RFU | 8.4 µM |  |  | 
Cn1c(=O)n(Cc2ccccc2)c(=O)c2c1nc1oc(C(C)(C)C)cn12 [Compound II-2] | 13312 RFU | 10.4 µM | superior potency and efficacy to VX-809 |  | 

SMILES | ΔSPQ (difference between maximum and minimum SPQ values) (CFBE41o- cells, 48 h) | EC50 (CFBE41o- cells, 48 h) | potency and efficacy compared with VX-809 in SPQ assay | ΔSPQ (Trial 2) | EC50 (Trial 2)
CCn1c(=O)c2c(nc3oc(C(C)(C)C)cn32)n(C)c1=O [Compound II-3] | 3935 RFU | 8.6 µM | superior potency and efficacy to VX-809 | (Trial 2: 4413) RFU | 12.7 µM
C=CCn1c(Oc2ccc(Br)cc2)nc2c1c(=O)n(C)c(=O)n2C [Compound III-1] | 8353 RFU | 11.1 µM |  |  | 
Cn1c(=O)c2[nH]c(N3CCN(c4ccccc4O)CC3)nc2n(C)c1=O [Compound III-2] | 9814 RFU | 3.6 µM | superior potency and efficacy to VX-809 |  | 
CCCN1N=C(C)Cn2c1nc1c2c(=O)n(CC(C)C)c(=O)n1C [Compound V-1] | 12233 RFU | 17.1 µM |  |  | 
C=C(C)CN1N=C(C)Cn2c1nc1c2c(=O)n(C/C=C/C)c(=O)n1C [Compound V-2] | 10602 RFU | 17.1 µM |  |  | 
CCCn1c(=O)c2c(nc3n2C(C)C(C)=NN3CC(C)C)n(C)c1=O (centres unmarked) [Compound V-3] | 7753 RFU | 4 µM | superior potency and efficacy to VX-809 |  | 
CCCCn1c(=O)c2c(nc3n2CC(C)=NN3CCC)n(C)c1=O [Compound V-4] | 12028 RFU | 7 µM | superior potency and efficacy to VX-809 |  | 
C=CCn1c(=O)c2c(nc3n2CC(C(C)(C)C)=NN3CC)n(C)c1=O [Compound V-5] | 9200 RFU | 8 µM |  |  | 
C=CCN1N=C(C)Cn2c1nc1c2c(=O)n(CCCC)c(=O)n1C [Compound V-6] | 8952 RFU | > 30 µM |  |  | 
C=CCN1N=C(C)Cn2c1nc1c2c(=O)n(CC(C)C)c(=O)n1C [Compound V-7] | 12223 RFU | 23 µM |  |  | 
CC1=NN(C)c2nc3c(c(=O)n(Cc4cccc(C)c4)c(=O)n3C)n2C1 [Compound V-8] | 5149 RFU | 14 µM |  |  | 
C=CCN1N=C(C)C(C)n2c1nc1c2c(=O)n(CCCC)c(=O)n1C (centres unmarked) [Compound V-9] | 10773 RFU | 8.3 µM |  |  | 
CCCn1c(=O)c2c(nc3n2CC(C)=NN3CCC(C)C)n(C)c1=O [Compound V-10] | 9555 RFU | 8.8 µM |  |  | 
CC1=NNc2nc3c(c(=O)n(Cc4cccc(C)c4)c(=O)n3C)n2C1C (centres unmarked) [Compound V-11] | 2625 RFU | 11.3 µM |  |  | 
C/C=C/Cn1c(=O)c2c(nc3n2C(C)C(C)=NN3CC)n(C)c1=O (centres unmarked) [Compound V-12] | 6365 RFU | > 30 µM |  |  | 
CCCN1N=C(C)Cn2c1nc1c2c(=O)n(CCC)c(=O)n1C [Compound V-13] | 4602 RFU | > 30 µM |  |  | 
C/C=C/CN1N=C(C)Cn2c1nc1c2c(=O)n(CC(C)C)c(=O)n1C [Compound V-14] | 5767 RFU | > 30 µM |  |  | 
C=CCN1N=C(C)C(C)n2c1nc1c2c(=O)n(CCC)c(=O)n1C (centres unmarked) [Compound V-15] | 4548 RFU | > 30 µM |  |  | 
CCCN1N=C(C)C(C)n2c1nc1c2c(=O)n(CCC)c(=O)n1C (centres unmarked) [Compound V-16] | 5519 RFU | > 30 µM |  |  | 
C=CCn1c(=O)c2c(nc3n2CC(C)=NN3Cc2ccccc2)n(C)c1=O [Compound V-17] | 3979 RFU | 23 µM |  |  | 
C/C=C/Cn1c(=O)c2c(nc3n2CC(C)=NN3C(C)C)n(C)c1=O [Compound V-18] | 7507 RFU | 11.1 µM |  |  | 
C=CCN1N=C(C)Cn2c1nc1c2c(=O)n(CCC)c(=O)n1C [Compound V-19] | 1995 RFU | 3.6 µM |  |  | 
C/C=C/CN1N=C(C)Cn2c1nc1c2c(=O)n(CCC)c(=O)n1C [Compound V-20] | 4351 RFU | 7.3 µM |  |  | 
C=C(C)CN1N=C(C)C(C)n2c1nc1c2c(=O)n(C/C=C/C)c(=O)n1C (centres unmarked) [Compound V-21] | 7505 RFU | > 30 µM |  |  | 
